From US10703735B2, “4-phenyl-coumarin derivatives, processes for their preparation and uses thereof for the treatment of cancer” (Lead Discovery Center GmbH, priority 2018, dated 2020)

What follows are molecules tested against mitochondrial RNA-polymerase (POLRMT) (Mus musculus, UniProt Q8BKF1) (assay: Homogeneous TR-FRET assay for mitochondrial transcription activity). Settings: homogeneous TR-FRET assay according to Example 4; read-out: mitochondrial transcription activity (IC-50).
mitochondrial RNA-polymerase (POLRMT), sequence (Q8BKF1 42-1207): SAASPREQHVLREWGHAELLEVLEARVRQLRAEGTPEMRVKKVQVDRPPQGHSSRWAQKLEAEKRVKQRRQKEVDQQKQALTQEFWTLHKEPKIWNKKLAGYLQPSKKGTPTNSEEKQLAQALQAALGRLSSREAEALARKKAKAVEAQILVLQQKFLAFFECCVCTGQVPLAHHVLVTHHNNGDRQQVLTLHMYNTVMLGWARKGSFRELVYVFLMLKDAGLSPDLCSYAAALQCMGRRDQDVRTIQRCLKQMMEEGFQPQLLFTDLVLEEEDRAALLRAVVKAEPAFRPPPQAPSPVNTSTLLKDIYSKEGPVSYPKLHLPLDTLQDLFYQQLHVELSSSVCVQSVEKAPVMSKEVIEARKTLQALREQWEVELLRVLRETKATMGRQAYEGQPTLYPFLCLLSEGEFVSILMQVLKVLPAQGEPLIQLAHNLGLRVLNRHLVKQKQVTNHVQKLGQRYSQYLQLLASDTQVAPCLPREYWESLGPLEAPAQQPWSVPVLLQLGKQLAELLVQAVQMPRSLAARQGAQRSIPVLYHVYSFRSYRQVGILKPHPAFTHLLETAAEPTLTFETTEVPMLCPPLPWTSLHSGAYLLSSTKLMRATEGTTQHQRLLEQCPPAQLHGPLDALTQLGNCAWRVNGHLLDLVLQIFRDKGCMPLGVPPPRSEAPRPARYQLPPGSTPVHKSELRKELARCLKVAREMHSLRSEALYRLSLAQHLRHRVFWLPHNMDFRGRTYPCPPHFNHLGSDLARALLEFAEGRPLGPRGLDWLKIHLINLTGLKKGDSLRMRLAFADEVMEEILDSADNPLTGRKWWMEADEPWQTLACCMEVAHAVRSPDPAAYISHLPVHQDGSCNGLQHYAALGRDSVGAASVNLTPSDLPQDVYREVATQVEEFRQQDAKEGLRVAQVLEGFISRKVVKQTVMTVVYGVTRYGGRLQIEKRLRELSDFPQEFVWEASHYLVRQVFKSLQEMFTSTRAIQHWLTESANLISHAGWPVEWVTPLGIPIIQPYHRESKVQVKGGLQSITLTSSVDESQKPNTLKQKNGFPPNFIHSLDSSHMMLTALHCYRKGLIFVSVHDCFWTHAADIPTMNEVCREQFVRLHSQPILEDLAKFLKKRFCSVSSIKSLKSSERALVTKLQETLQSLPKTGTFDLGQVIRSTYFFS
Format: biochemical
Source text: The TR-FRET assay was basically conducted as described in WO 2016/193231A1, especially as described in example 1 (hereby incorporated by reference). With respect to the background of the mitochondrial transcription it is referred to Falkenberg et al. (2002) and Posse et al. (Posse et al. 2015). The method monitors the activity of mitochondrial RNA-polymerase via detection of the formation of its product, a 407 bp long RNA sequence. Detection of the product is facilitated by hybridization of two DNA-oligonucleotide probes to specific and adjacent sequences within the RNA product sequence. Upon annealing of the probes, two fluorophores that are coupled directly to an acceptor nucleotide probe (ATT0647, 5′) or introduced via a coupled streptavidin interacting with a biotinylated donor nucleotide probe on the other side (Europium cryptate, 3) are brought into sufficient proximity to serve as a fluorescence-donor-acceptor pair as generally described in Walters and Namchuk (2003). Thus, a FRET signal at 665 nm is generated upon excitation at 340 nm.
Briefly, the protocol described here was applied for screening and activity determination in a low-volume 384-well microtiter plate with non-binding surface. For high-throughput application in the 1536-well microtiter plate format, volumes of the reagent mixes were adjusted, maintaining the volumetric ratio. Proteins POLRMT (NM_172551.3), TFAM (NM_009360.4) and TFB2M (NM_008249.4) were diluted from their stocks to working concentrations of 150 nM, 1.8 μM and 330 nM respectively, in a dilution buffer containing 100 mM Tris-HCl pH 8.0, 200 mM NaCl, 10% (v/v) glycerole, 2 mM glutathione (GSH), 0.5 mM EDTA and 0.1 mg/mL BSA. Protein dilutions and template DNA, comprising a pUC18 plasmid encoding the mitochondrial light strand promoter, restriction linearized proximal to the promoter 3′-end (pUC-LSP), were mixed at the twofold final assay-concentration in a reaction buffer, containing 10 mM Tris-HCl pH 7.5, 10 mM MgCl2, 40 mM NaCl, 2 mM GSH, 0.01% (w/v) Tween-20 and 0.1 mg/mL BSA.
5 μL of this mix were dispensed, depending on the chosen microtiter plate format, using multi-channel pipettes or a Multidrop® dispenser (Thermo Fisher Scientific, Waltham Mass.) into the wells of a microtiter plate and incubated at room temperature (RT) for 10 min. Chemical compounds under scrutiny in the assay were applied using contact-free acoustic droplet-dispensing (Echo520® Labcyte Inc., Sunnyvale Calif.) from 10 mM compound stocks in 100% DMSO, to a final concentration of 10 μM or in serial dilution series of the required concentration range. Equal amounts of DMSO without any compound were added to positive control samples, followed by an incubation step at RT for 10 min.
The enzymatic reaction was started by the addition of 5 μL of a mix of dNTPs in reaction buffer to a final concentration of 500 μM each. No nucleotide mix was added to negative control samples. The content of the wells was mixed using a VarioTeleshaker™ (Thermo Fisher Scientific, Waltham Mass.) at 1500 rpm for 45 sec after which the microtiter plate was centrifuged at 500×g for 1 min. The samples were incubated for 2 h at RT with humidity control to avoid evaporation. The detection reagents were prepared in a buffer that was composed, such that the enzymatic reaction was terminated due to chelating of Mg-ions and increased ionic strength, containing 50 mM Tris-HCl pH 7.5, 700 mM NaCl, 20 mM EDTA, and 0.01% (w/v) Tween-20. Importantly Eu-cryptate-coupled streptavidin had to be preincubated with a 100-fold molar excess of a random sequence oligonucleotide for 10 min at RT in the dark to block unspecific binding of single stranded RNA to the protein. Subsequently, the blocked streptavidin(-Eu) was mixed with the DNA-probes on ice and kept away from light until use. […]
`CNC(=O)C1CCCN(C(=O)C(C)Oc2ccc3c(-c4ccccc4)cc(=O)oc3c2)C1` (stereo not shown) [Compound 62, N-methyl-1-[2-(2-oxo-4-phenyl-chromen-7-yl)oxypropanoyl]piperidine-3-carboxamide] was tested, and the IC50 was 1 to 10 µM.
Molecule `COC(=O)C1CCN(C(=O)C(C)Oc2ccc3c(-c4ccccc4)cc(=O)oc3c2)CC1` (stereo not shown) [Compound 63, methyl 1-[2-(2-oxo-4-phenyl-chromen-7-yl)oxypropanoyl]piperidine-4-carboxylate] has an IC50 of 1 to 10 µM.
`C[C@@H](Oc1ccc2c(-c3ccccc3)cc(=O)oc2c1)C(=O)O` [Compound 66, (2R)-2-(2-oxo-4-phenyl-chromen-7-yl)oxypropanoic acid] showed an IC50 of 1 to 10 µM.
`CC(Oc1ccc2c(-c3ccccc3)cc(=O)oc2c1)C(N)=O` (stereo not shown) [Compound 67, 2-(2-oxo-4-phenyl-chromen-7-yl)oxypropanamide] showed an IC50 of 1 to 10 µM.
With `CC(Oc1ccc2c(-c3ccccc3)cc(=O)oc2c1)C(=O)N1CCC(C(=O)O)CC1` (stereo not shown) [Compound 69, 1-[2-(2-oxo-4-phenyl-chromen-7-yl)oxypropanoyl]piperidine-4-carboxylic acid] the IC50 was 1 to 10 µM.
`CC(Oc1ccc2c(-c3ccccc3)cc(=O)oc2c1)C(=O)NCCN1CCOCC1` (stereo not shown) [Compound 70, N-(2-morpholinoethyl)-2-(2-oxo-4-phenyl-chromen-7-yl)oxy-propanamide] showed an IC50 of 1 to 10 µM.
Molecule `CCOC(=O)C(CC)Oc1ccc2c(-c3ccccc3)cc(=O)oc2c1` (stereo not shown) [Compound 71, ethyl 2-(2-oxo-4-phenyl-chromen-7-yl)oxybutanoate] has an IC50 of 1 to 10 µM.
`COc1ccc(NC(=O)C(C)Oc2ccc3c(-c4ccccc4)cc(=O)oc3c2)cc1` (stereo not shown) [Compound 72, N-(4-methoxyphenyl)-2-(2-oxo-4-phenyl-chromen-7-yl)oxy-propanamide] was tested, and the IC50 was 1 to 10 µM.
`CCOCCOC(=O)COc1ccc2c(-c3ccccc3)cc(=O)oc2c1` [Compound 73, 2-ethoxyethyl 2-(2-oxo-4-phenyl-chromen-7-yl)oxyacetate] showed an IC50 of 1 to 10 µM.
`CCCOC(=O)COc1ccc2c(-c3ccccc3)cc(=O)oc2c1` [Compound 74, propyl 2-(2-oxo-4-phenyl-chromen-7-yl)oxyacetate] gave an IC50 of 1 to 10 µM.
Work on `NC(=O)COc1ccc2c(-c3ccccc3)cc(=O)oc2c1` [Compound 75, 2-(2-oxo-4-phenyl-chromen-7-yl)oxyacetamide] yielded an IC50 of 1 to 10 µM.
In the case of `CCCCOC(=O)COc1ccc2c(-c3ccccc3)cc(=O)oc2c1` [Compound 76, butyl 2-(2-oxo-4-phenyl-chromen-7-yl)oxyacetate], the IC50 is reported as 1 to 10 µM.
Work on `CC(C)COC(=O)COc1ccc2c(-c3ccccc3)cc(=O)oc2c1` [Compound 77, isobutyl 2-(2-oxo-4-phenyl-chromen-7-yl)oxyacetate] yielded an IC50 of 1 to 10 µM.
With `O=C(COc1cc2oc(=O)cc(-c3ccccc3)c2cc1Cl)N1CCCc2ccccc21` [Compound 78, 6-chloro-7-[2-(3,4-dihydro-2H-quinolin-1-yl)-2-oxo-ethoxy]-4-phenyl-chromen-2-one] the IC50 was 1 to 10 µM.
Molecule `CC(Oc1cc2oc(=O)cc(-c3ccccc3)c2cc1Cl)C(=O)NCCN1CCOCC1` (stereo not shown) [Compound 79, 2-(6-chloro-2-oxo-4-phenyl-chromen-7-yl)oxy-N-(2-morpholinoethyl)propanamide] has an IC50 of 1 to 10 µM.
`CC(Oc1cc(F)c2c(-c3ccccc3)cc(=O)oc2c1)C(=O)N(C)C` (stereo not shown) [Compound 80, 2-(5-fluoro-2-oxo-4-phenyl-chromen-7-yl)oxy-N,N-dimethyl-propanamide] was tested, and the IC50 was 1 to 10 µM.
With `CCOC(=O)COc1ccc2c(-c3ccccc3)cc(=O)oc2c1` [Compound 81, ethyl 2-(2-oxo-4-phenyl-chromen-7-yl)oxyacetate] the IC50 was 1 to 10 µM.
`CC(C)(C)OC(=O)COc1cc2oc(=O)cc(-c3ccccc3)c2cc1Cl` [Compound 82, tert-butyl 2-(6-chloro-2-oxo-4-phenyl-chromen-7-yl)oxyacetate] was tested, and the IC50 was 1 to 10 µM.
Work on `O=C(COc1cc2oc(=O)cc(-c3ccccc3)c2cc1Cl)NCCN1CCOCC1` [Compound 83, 2-(6-chloro-2-oxo-4-phenyl-chromen-7-yl)oxy-N-(2-morpholinoethyl)acetamide] yielded an IC50 of 1 to 10 µM.
